Results from patent US11141423B2, “Methods of screening compounds useful for treatment of a liver disease” (Icahn School of Medicine at Mount Sinai, priority 2010, dated 2021).

Legend:
[1] = target: T1, CB1R-AT1R heteromer (UniProt P30556+P47746); assay: Ang II-mediated pERK in Neuro2A-AT1R cells; assay type: cell-based
T1 construct: Neuro2A cells expressing endogenous CB1R and recombinant AT1R; expressed in transfected cells; host or cells: Neuro2A stably expressing AT1R (CB1R endogenous)
Protocol: (§1) Generation of HEK293-Transfected Cells and Neuro2A Cell Line Stably Expressing AT1R. These cell lines were generated using standard procedure of transfection and antibiotic selection of expressing cells. Screening of positive cells was carried out by immunostaining of the receptors to evaluate the homogeneity of expression in the clones.
RNAi-mediated CB1R and βarrestin-2 downregulation.
Neuro2A cells expressing endogenous CB1R and recombinant AT1R were pretreated with vehicle or THL (2 μM) for 3 hours in serum free media and stimulated with vehicle (CTL=control) or with the receptor ligand (angiotensin II) for 3 minutes. […] ERK phosphorylation was assessed by Western blot using antibodies to pERK and ERK (n=3-5). […] The cells were processed for infrared detection of pERK.

[2] = target: T2, AT1R (Rattus norvegicus, UniProt P25095); assay: Ang II-mediated pERK in control HSCs (cHSCs), Western blot; assay type: cell-based; details: cHSCs from control rats; Ang II stimulation; THL pretreatment 10 or 30 minutes
T2 construct: a profibrogenic receptor, AT1R, which was also expressed in cHSCs; endogenous in cells; host or cells: primary hepatic stellate cells from control-diet Sprague-Dawley rats (cHSCs)
T2 sequence (P25095 1-359): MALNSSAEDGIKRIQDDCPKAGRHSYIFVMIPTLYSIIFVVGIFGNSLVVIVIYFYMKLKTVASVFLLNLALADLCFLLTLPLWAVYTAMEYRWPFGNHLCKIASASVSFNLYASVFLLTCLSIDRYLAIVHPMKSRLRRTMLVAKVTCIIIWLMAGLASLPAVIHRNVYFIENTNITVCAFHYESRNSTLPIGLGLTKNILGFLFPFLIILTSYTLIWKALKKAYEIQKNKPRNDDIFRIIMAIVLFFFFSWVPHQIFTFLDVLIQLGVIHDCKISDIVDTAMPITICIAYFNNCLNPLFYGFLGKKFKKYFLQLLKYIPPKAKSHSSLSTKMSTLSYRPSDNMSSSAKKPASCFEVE
Excerpt: HSCs from ethanol treated rats were generated in the laboratory of Dr. Natalia Nieto: Rats (300 g female Sprague-Dawley, N=10/group) were fed the control or ethanol Lieber-DeCarli diets for 8 months (Lieber and DeCarli, 1989). Animals received humane care according to the criteria outlined in the Guide for Care and Use of Laboratory Animals. Details regarding pathology of the liver of the control and alcohol fed rats are described in (Cubero and Nieto, 2008; Urtasun et al., 2009).
Isolation of Hepatic Stellate Cells: These were isolated as described before. (Friedman, S. L. Hepatic stellate cells: protean, multifunctional, and enigmatic cells of the liver. Physiol Rev 88, 125-72 (2008); Teixeira-Clerc, F. et al. CB1 cannabinoid receptor antagonism: a new strategy for the treatment of liver fibrosis. Nat Med 12, 671-6 (2006)).

[3] = tested on: α-SMA, TGFβ, pro-collagen α III and pro-collagen α I; assay: CGS21680-mediated fibrogenic response in eHSC, real-time PCR; assay type: cell-based, rat; details: eHSCs, 6 hours, mRNA normalized to GAPDH
Protocol: Reverse Transcription and Real-Time PCR. Total RNA was isolated from 3×10^8 HSCs using the TRIzol method (Invitrogen, Carlsbad, Calif., USA). RNA (1.0 μg) was reverse-transcribed in 20 μl of buffer containing 50 μM oligo(dT)20, 25 mM MgCl2, 0.1 M dithiothreitol, 40 U/μl RNaseOUT, and 200 U/μl SuperScript III RT for 50 min at 50° C. The reaction was stopped by incubating the samples at 85° C. for 5 min, and 40 μl of nuclease-free water was added. Real-time PCR was performed by using the Brilliant SYBR Green QPCR Master Mix. The PCR template source was either 30 ng of first-strand cDNA or purified DNA standard. Primer sequences used to amplify the desired cDNA are detailed in Table 2. Amplification was performed with a spectrofluorometric thermal cycler (Stratagene). After an initial denaturation step at 95° C. for 10 min, amplification was performed using 40 cycles of denaturation (95° C. for 30 s), annealing (56° C. for 1 min), and extension (72° C. for 1 min). To standardize mRNA levels, we amplified GAPDH, a housekeeping gene, as an internal control. […] For analysis of gene expression, after reverse transcription, the number of copies of mRNA for the indicated transcripts were determined by real-time PCR. Data were normalized to GAPDH mRNA and are expressed as the mean±SD (n=3 in quadruplicate). […]

[4] = tested on: α-SMA, TGFβ, pro-collagen α III and pro-collagen α I; assay: Ang II-mediated fibrogenic response in eHSC, real-time PCR; assay type: cell-based, rat; details: eHSCs, 4 hours, mRNA normalized to GAPDH
Protocol: Reverse Transcription and Real-Time PCR. Total RNA was isolated from 3×10^8 HSCs using the TRIzol method (Invitrogen, Carlsbad, Calif., USA). RNA (1.0 μg) was reverse-transcribed in 20 μl of buffer containing 50 μM oligo(dT)20, 25 mM MgCl2, 0.1 M dithiothreitol, 40 U/μl RNaseOUT, and 200 U/μl SuperScript III RT for 50 min at 50° C. The reaction was stopped by incubating the samples at 85° C. for 5 min, and 40 μl of nuclease-free water was added. Real-time PCR was performed by using the Brilliant SYBR Green QPCR Master Mix. The PCR template source was either 30 ng of first-strand cDNA or purified DNA standard. Primer sequences used to amplify the desired cDNA are detailed in Table 2. Amplification was performed with a spectrofluorometric thermal cycler (Stratagene). After an initial denaturation step at 95° C. for 10 min, amplification was performed using 40 cycles of denaturation (95° C. for 30 s), annealing (56° C. for 1 min), and extension (72° C. for 1 min). To standardize mRNA levels, we amplified GAPDH, a housekeeping gene, as an internal control. […] For analysis of gene expression, after reverse transcription, the number of copies of mRNA for the indicated transcripts were determined by real-time PCR. Data were normalized to GAPDH mRNA and are expressed as the mean±SD (n=3 in quadruplicate).

[5] = target: T3, CB1R-AT1R heteromer (Homo sapiens, UniProt P21554+P30556); assay: Ang II-mediated pERK in HEK293 transfected with AT1R and CB1R; assay type: cell-based
T3 construct: expressed in transfected cells; host or cells: HEK293
T3 sequence (P21554 whole entry): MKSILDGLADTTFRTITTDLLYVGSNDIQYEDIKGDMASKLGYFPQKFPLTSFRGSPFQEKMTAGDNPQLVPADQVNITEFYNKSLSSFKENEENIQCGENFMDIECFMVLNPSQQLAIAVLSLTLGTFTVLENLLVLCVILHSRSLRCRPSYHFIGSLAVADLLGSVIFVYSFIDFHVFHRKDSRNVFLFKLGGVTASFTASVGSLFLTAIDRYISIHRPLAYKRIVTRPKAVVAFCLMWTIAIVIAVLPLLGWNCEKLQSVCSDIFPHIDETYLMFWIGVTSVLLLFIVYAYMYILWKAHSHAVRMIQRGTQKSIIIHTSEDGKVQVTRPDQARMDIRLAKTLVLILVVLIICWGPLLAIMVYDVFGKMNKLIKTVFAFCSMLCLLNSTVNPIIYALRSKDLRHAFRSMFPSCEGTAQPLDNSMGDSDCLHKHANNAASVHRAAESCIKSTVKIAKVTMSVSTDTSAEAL
T3 sequence (P30556 whole entry): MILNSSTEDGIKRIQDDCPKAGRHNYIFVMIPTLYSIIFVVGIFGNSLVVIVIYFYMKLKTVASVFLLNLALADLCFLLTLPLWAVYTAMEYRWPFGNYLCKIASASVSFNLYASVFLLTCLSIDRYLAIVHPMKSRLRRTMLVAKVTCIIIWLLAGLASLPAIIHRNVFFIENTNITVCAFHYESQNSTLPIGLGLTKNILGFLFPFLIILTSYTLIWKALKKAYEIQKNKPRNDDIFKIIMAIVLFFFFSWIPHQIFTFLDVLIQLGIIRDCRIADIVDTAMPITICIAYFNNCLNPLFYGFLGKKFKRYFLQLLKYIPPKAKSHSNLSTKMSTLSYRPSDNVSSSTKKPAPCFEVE
Protocol: FIG. 3A. […] ERK phosphorylation was assessed by Western blot using antibodies to pERK and ERK. Data represent mean±SEM (n=4).
as §1

[6] = tested on: DAGL; details: cited from earlier work
[7] = target: T4, CB1R-AT1R heteromer (Rattus norvegicus, UniProt P20272+P25095); assay: Ang II-mediated pERK in activated HSCs (eHSCs), Western blot; assay type: cell-based; details: eHSCs from ethanol treated rats; Ang II stimulation; THL pretreatment 10 or 30 minutes; pERK normalized to total ERK
T4 construct: endogenous in cells; host or cells: primary hepatic stellate cells from ethanol-fed Sprague-Dawley rats (eHSCs)
T4 sequence (P20272 whole entry, one chain of several): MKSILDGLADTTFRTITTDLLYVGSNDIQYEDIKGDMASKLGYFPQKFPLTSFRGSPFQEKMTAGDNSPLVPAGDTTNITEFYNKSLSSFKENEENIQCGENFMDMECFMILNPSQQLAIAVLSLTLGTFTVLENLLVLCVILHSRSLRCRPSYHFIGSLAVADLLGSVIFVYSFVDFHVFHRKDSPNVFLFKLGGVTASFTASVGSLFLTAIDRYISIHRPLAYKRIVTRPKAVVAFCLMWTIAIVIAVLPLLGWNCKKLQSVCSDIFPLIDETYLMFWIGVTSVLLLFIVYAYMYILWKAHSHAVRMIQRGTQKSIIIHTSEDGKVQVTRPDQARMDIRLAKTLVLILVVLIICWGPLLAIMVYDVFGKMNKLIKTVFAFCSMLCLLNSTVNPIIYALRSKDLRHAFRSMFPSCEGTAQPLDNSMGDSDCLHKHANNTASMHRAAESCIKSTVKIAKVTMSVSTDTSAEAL
Excerpt: Animals received humane care according to the criteria outlined in the Guide for Care and Use of Laboratory Animals.
Isolation of Hepatic Stellate Cells: These were isolated as described before.

[8] = tested on: profibrogenic genes; assay: Profibrogenic gene expression in liver of CCl4 or vehicle treated mice; assay type: in vivo

T1 sequence (P47746 whole entry): as the sequence (P20272 whole entry, one chain of several) above, with E95D counted along it
T1 sequence (P30556 whole entry): as the sequence (P30556 whole entry) above

## pertussis toxin
[1]; cells co-expressing CB1R and AT1R, PTX 15 nM, 16 hours, forskolin 1 μM, 30 min
  Effect on AT1R signaling (Ang II pERK), G protein coupling: markedly inhibited

## Cc1c(C(=O)NN2CCCCC2)nn(-c2ccc(Cl)cc2Cl)c1-c1ccc(Cl)cc1 [SR141716]
[2]
  Effect on Ang II-mediated ERK phosphorylation in cHSCs: not
[3]; listed as CB1R antagonist
  Effect on CGS-mediated increase in expression of profibrogenic markers: completely blocked
[3]; listed as SR
  Effect on CGS-mediated increase in expression of profibrogenic markers: prevents
[4]
  Effect on Ang II-mediated increase in expression of profibrogenic markers: prevents
[4]; listed as CB1R antagonist
  Effect on Ang II-mediated increase in expression of profibrogenic markers: completely blocked

## CCCCCCCCCCC[C@@H](C[C@@H]1OC(=O)[C@H]1CCCCCC)OC(=O)[C@H](CC(C)C)NC=O [THL, tetrahydrolipstatin]
[5]; HEK293 co-expressing CB1R and AT1R, 10 nM Ang II 3 minutes, SR 1 μM, THL 1 μM, 1 hour pre-treatment
  Effect on Ang II-mediated signaling (pERK): marked decrease
[6]
  Inhibition of DAGL versus other lipases: inhibit DAGL at concentrations lower than those required to inhibit other lipases
[1]; Neuro2A-AT1, THL 2 μM, 3 hours, serum free media, angiotensin II 3 minutes
  ERK1/2 phosphorylation upon agonist stimulation of the associated receptor: marked decrease
[1]; Neuro2A-AT1R
  Effect on Ang II-mediated signaling (blocking 2-AG production): loss
[7]
  Effect on Ang II-mediated ERK phosphorylation in eHSCs: decreased
[2]
  Effect on Ang II-mediated ERK phosphorylation in cHSCs: not

## CCNC(=O)[C@H]1O[C@@H](n2cnc3c(N)nc(NCCc4ccc(CCC(=O)O)cc4)nc32)[C@H](O)[C@@H]1O [CGS21680]
[8]; CCl4 treated mice, acute i.p. injection CGS21680 2 mg/kg, 6 hours
  Expression of profibrogenic genes in liver: further increased
[8]; non-fibrotic livers from vehicle-treated mice, CGS21680 2 mg/kg i.p.
  Expression of profibrogenic genes in liver: did not elevate

## O=C(NCCCCCCNC(=O)ON=C1CCCCC1)ON=C1CCCCC1 [RHC80267, 1,6-bis-(cyclohexyloximino-carbonylamino)-hexane]
[6]
  Inhibition of DAGL versus other lipases: inhibit DAGL at concentrations lower than those required to inhibit other lipases

## CCCCC/C=C\C/C=C\C/C=C\C/C=C\CCCC(=O)OC(CO)CO [2-AG, 2-arachidonoyl glycerol]
[1]
  Effect on THL-induced loss of Ang II-mediated signaling: reversed
[1]; THL pretreated Neuro2A-AT1, constant agonist concentration, increasing doses of 2-AG
  2-AG-mediated ERK1/2 phosphorylation: concentration-dependent

## CCCCCCC(C)(C)c1cc(O)c2c(c1)OC(C)(C)[C@@H]1CC=C(CO)C[C@@H]21 [Hu210]
[1]
  Effect on AT1R signaling of a non-signaling concentration of CB1R agonist: potentiates
  Effect on THL-induced loss of Ang II-mediated signaling: reversed

## Ang II: Angiotensin II, an agonist of AT1R (DRVYIHPF)
[5]
  Increase in pERK on Ang II stimulation: greater increase
[1]
  pERK levels at concentrations of Ang II superior to 10 nM: decrease
  pERK levels on Ang II stimulation: dose-dependent rapid and transient enhancement
